Like-named read-outs stand apart in the source and are kept apart here.
What was measured:
[1] = read-out: Human therapeutic cmax, Table 1 (R3 I (2021), Schulz et al. (2020) and others); cited from earlier work
[2] = tested on: hiPSCs trilineage differentiation (cardiomyocytes, hepatocytes, neural rosette-like cells); settings: based on effects on cardiomyocytes and/or hepatocytes only; ref Jamalpoor et al., 2022; cited from earlier work
[3] = tested on: hiPSCs trilineage differentiation (cardiomyocytes, hepatocytes, neural rosette-like cells); assay: ReproTracker trilineage differentiation, overall teratogenicity prediction; settings: for LOAEL compared with respective human therapeutic Cmax: Figure 4; for ReproTracker results LOAEL: lowest tested concentration with significant decrease of at least one biomarker, trilineage assay, 'N.d. up to x' given as > x
From the text: In ReproTracker, teratogenicity prediction of test compounds is based on a Weight of Evidence (WoE) approach, which considers both the significant decrease in biomarker expression and the morphological/functional changes following exposure to test compounds throughout differentiation assays.
This threshold, for any given biomarker, is defined as the average minus one time the standard deviation (SD) of the biomarker expression levels in solvent-exposed control cultures throughout the experiment. Reduced expression of the selected biomarkers below the set threshold in a concentration-dependent manner, upon exposure to a minimum of 2 consecutive non-cytotoxic concentrations would be considered significant (noted as +). A decrease in expression below the threshold without a clear dose-response would lead to an equivocal classification (noted as (+)). An increase in expression or a lack of response would be considered negative (noted as -). Disruption of morphology/functionality of the cultures upon compound exposure at the two highest tested concentrations in all biological replicates is considered as a morphological disruption (noted as +). Absence of significant effects results in a negative score (noted as -).
For each differentiation assay, the expression of two biomarkers and a morphological/functional read-out are considered. In the hepatocyte and cardiomyocyte differentiation, FOXA2 and BMP4 are considered germ-layer-specific biomarkers, while AFP and MYH6 are considered cell-specific biomarkers, respectively. When applying the WoE approach, the cell-specific biomarkers in hepatocyte and cardiomyocyte differentiation are given higher weight compared to the germ-layer specific biomarkers and morphology/functionality. For the neural differentiation, both PAX6 and NESTIN are given equal weight as they are considered cell-specific markers. In this case, both biomarkers are given higher weight than the morphological read-out.
Every measurement/observation is assigned a score (positive, negative, or equivocal). […] In the ReproTracker assay, a compound is identified as a teratogen if it receives a positive score in at least one of the trilineage differentiation assays (cardiomyocyte, hepatocyte, or neural differentiation). […] If neither biomarker expression levels nor morphology/functionality are affected in any of the differentiation assays, the response is considered negative.

[4] = tested on: hiPSCs differentiating into hepatocyte-like cells; settings: lineage call; footnote b: previously published data; ref Jamalpoor et al., 2022; cited from earlier work
[5] = tested on: hiPSCs differentiating into neural rosette-like cells
[6] = tested on: hiPSCs differentiating into cardiomyocyte-like cells; assay: ReproTracker cardiomyocyte differentiation assay
human = settings: Table 1 (R3 I (2021), Schulz et al. (2020) and others); cited from earlier work
[7] = tested on: hiPSCs differentiating into hepatocyte-like cells; assay: ReproTracker hepatocyte differentiation assay
[8] = lineage call (positive/equivocal/negative)

Row | SMILES | Cmax [1] [nM] | LOAEL before inclusion of the neural differentiation readout [2] [µM] | LOAEL compared with respective human therapeutic Cmax [3] | ReproTracker results LOAEL [3] | ReproTracker results LOAEL ([3]; listed as diltiazem) [µM] | ReproTracker results Hepatocyte-like cells [4] | ReproTracker results Neural rosette-like cells [5] | ReproTracker results Cardiomyocyte-like cells [6, 8] | In vivo classification H (human) | ReproTracker results Neural rosette-like cells [5, 8] | ReproTracker results Hepatocyte-like cells [7, 8] | ReproTracker results Cardiomyocyte-like cells [6] | ReproTracker results Hepatocyte-like cells [7]
1 | COc1ccc([C@@H]2Sc3ccccc3N(CCN(C)C)C(=O)[C@@H]2OC(C)=O)cc1 [Diltiazem] | 60 to 300 | 31 | higher | ≤7.8 µM | ≤ 7.8 | Positive | Positive | – | – | – | – | – | –
2 | Nc1cccc2c1C(=O)N(C1CCC(=O)NC1=O)C2=O (centres unmarked) [Pomalidomide] | 300 to 400 | – | higher | ≤12.5 µM | – | – | – | Positive | T (presumed) | Positive | Positive | – | –
3 | CO [Methanol] | 98700 | – | – | N.d. up to 1000 µM | – | – | Negative | – | NT (presumed) | – | – | Negative | Negative

Reference: PMC12508576, “Implementing a trilineage differentiation in the ReproTracker assay for improved teratogenicity assessment” (Frontiers in Toxicology, 2025)
